We go through 73 molecules from PubChem BioAssay AID1996.

A word on the solubility (kinetic): it is the concentration staying in solution when a stock, usually in DMSO, is diluted into the medium.

≈ marks a conversion by molar mass, not a printed value.

For the data set the following is noted: buffer; pH 7.4; 200.0 µM.
In turn, `Cc1ccc2c(CN3CC(C)CC(C)C3)cc(=O)oc2c1` (stereo not drawn) showed a solubility (kinetic) of 4.3 µg/mL (≈ 15.1 µM).

With `COc1cc(NC(=S)Nc2cccnc2)cc(OC)c1`, the kinetic solubility is under 0.2 µg/mL.

As for `Cc1[nH]c2ccc(C(=O)NCCCN3CCCCC3)cc2c1C`, the solubility (kinetic) was over 47 µg/mL.

As for `Nc1ccccc1SCc1c(Cl)cccc1Cl`, the kinetic solubility is under 0.6 µg/mL.

Take `CCS(=O)(=O)Nc1cccc(-c2nc3cccnc3s2)c1`: the kinetic solubility stood at 45.4 µg/mL (≈ 142 µM).

`Cc1nc(SCC(=O)Nc2ccc(S(=O)(=O)N3CCOCC3)cc2)c2c(C)c(C)sc2n1`: the solubility (kinetic) is 7.3 µg/mL (≈ 14.8 µM).

`CN(CC(=O)NCc1cccnc1)S(=O)(=O)c1ccc(F)cc1` showed a kinetic solubility of over 50.6 µg/mL.

Regarding `COc1ccc(S(=O)(=O)N2CCOCC2)cc1NC(=O)CN1C(=O)CN(C)C1=O`, the kinetic solubility was over 64 µg/mL.

Regarding `Cc1ccc(OCC2Cn3c(nc4c3c(=O)[nH]c(=O)n4C)O2)cc1C` (stereo not drawn), the solubility (kinetic) was determined as 3.4 µg/mL (≈ 9.93 µM).

In turn, `CC1=N/C(=C/c2ccco2)C(=O)O1` yielded a kinetic solubility of over 26.6 µg/mL.

As for `CC(=O)Nc1sc2c(c1C#N)CCC2`, the solubility (kinetic) is over 30.9 µg/mL.

`Cc1cc(NC(=O)C(C)SCC(=O)N(C)Cc2c(F)cccc2Cl)no1` (stereo not drawn): the kinetic solubility is over 60 µg/mL.

`CC(=O)N(C1=NCCCS1)c1ccc(Cl)cc1`: the solubility (kinetic) is 32.8 µg/mL (≈ 122 µM).

`O=C(NCc1ccco1)NC(=O)c1csc([N+](=O)[O-])c1` displayed a kinetic solubility of 0.6 µg/mL (≈ 2.03 µM).

Molecule `O=C(O)c1ccccc1Nc1cccc(C(F)(F)F)c1` yielded a kinetic solubility of over 42.2 µg/mL.

Molecule `COc1ccccc1CNC(=O)CCNC(=O)c1ccco1` displayed a solubility (kinetic) of over 45.3 µg/mL.

The molecule `CC(=O)Nc1ccc(S(=O)(=O)N(C)CC(=O)OCC(=O)N2CCCCCC2)cc1` came in with a solubility (kinetic) of 60.3 µg/mL (≈ 142 µM).

Turning to `N#C/C(=C\Nc1ccccn1)S(=O)(=O)c1ccc(Cl)cc1`, the solubility (kinetic) was 0.4 µg/mL (≈ 1.25 µM).

Regarding `O=C(CS(=O)(=O)Cc1ccccc1)Nc1ccc2c(c1)OCO2`, the kinetic solubility was found to be 15.7 µg/mL (≈ 47.1 µM).

Regarding `CCOc1ccccc1NC(=O)NC1CCCc2ccccc21` (stereo not drawn), the kinetic solubility came out at 0.5 µg/mL (≈ 1.61 µM). Compared with the last molecule, the solubility kinetic is about 31-fold lower.

On to `O=C(OCC(=O)N1CCCC1=O)c1ccc(O)cc1O`, for which the solubility (kinetic) was over 41.9 µg/mL.

Molecule `COc1cc(C=NNC(=O)c2ccccc2-n2cccc2)ccc1O` showed a solubility (kinetic) of over 50.3 µg/mL.

As to `Cc1ccc2sc(N(CCN(C)C)C(=O)/C=C/c3cccs3)nc2c1C.Cl`, the kinetic solubility is under 0.3 µg/mL.

The molecule `COc1ccc(CNC(=O)COc2ccc(OC)cc2)cc1` gave a solubility (kinetic) of 35.8 µg/mL (≈ 119 µM).

On to `Cc1ccc(C)c(NCC(=O)c2ccc(Cl)cc2)c1`, for which the solubility (kinetic) came to 2.2 µg/mL (≈ 8.04 µM).

As for `CN(Cc1ccccc1)C(=S)NC(=O)c1cccs1`, the kinetic solubility is over 43.6 µg/mL.

Take `O=c1[nH]c(/C=C\c2cccc(Cl)c2)nc(O)c1[N+](=O)[O-]`: the solubility (kinetic) is over 44.1 µg/mL.

Molecule `O=C(O)/C=C/C(=O)NC1CCCCCCCCCCC1` displayed a solubility (kinetic) of over 42.2 µg/mL.

In turn, `CCc1ccc(NC(=O)c2cnc(SC)nc2C)cc1` registered a kinetic solubility of 17.4 µg/mL (≈ 60.5 µM).

Molecule `CCOc1ccc(C(=O)n2cc(C(=O)OC)c3ccccc32)cc1OCC` registered a solubility (kinetic) of 3.9 µg/mL (≈ 10.6 µM).

For `CCC(C(=O)NC1CC(C)(C)NC(C)(C)C1)c1ccccc1` (stereo not drawn), the kinetic solubility is over 45.4 µg/mL.

As to `O=C(CS(=O)(=O)c1ccc2ccccc2c1)N1CCCCCC1`, the solubility (kinetic) was determined as 47.1 µg/mL (≈ 142 µM).

In the case of `Cn1c(=O)c2[nH]c(-c3ccc(S(=O)(=O)O)cc3)nc2n(C)c1=O.O`, the kinetic solubility was over 53.2 µg/mL.

In turn, `O=C(COC(=O)c1ccc([N+](=O)[O-])o1)NC1CCCc2ccccc21` (stereo not drawn) registered a kinetic solubility of 26.3 µg/mL (≈ 76.4 µM).

For the molecule `O=C(NCCc1c[nH]c2ccccc12)C(=O)c1c[nH]c2ccccc12`, the solubility (kinetic) stood at 4.2 µg/mL (≈ 12.7 µM).

`CCC(=O)c1ccc(OCC(=O)N2CCN(CC(=O)Nc3ccccc3C(F)(F)F)CC2)cc1` gave a kinetic solubility of over 71.6 µg/mL.

Consider `COc1ccc(N/C(N)=N/c2nc(C)cc(=O)[nH]2)cc1`, for which the solubility (kinetic) was 6.8 µg/mL (≈ 24.9 µM).

In turn, `Oc1c(Cl)cc(Cl)cc1C=Nc1ccc(N2CCOCC2)cc1` yielded a solubility (kinetic) of 8.1 µg/mL (≈ 23.1 µM).

`Cc1ccccc1CSc1nc2ccccc2c(=O)n1C` returned a solubility (kinetic) of 1.5 µg/mL (≈ 5.06 µM).

For the molecule `COC(=O)c1ccc(CO/N=C/c2ccccc2OC)cc1`, the solubility (kinetic) is 2.6 µg/mL (≈ 8.69 µM).

As for `COc1ccc([N+](=O)[O-])cc1NC(=O)c1ccccc1SC`, the kinetic solubility came out at 0.4 µg/mL (≈ 1.26 µM).

`COc1ccc(-c2cc(C(=O)OCC(=O)NC3CC3)c3ccccc3n2)cc1OC` had a kinetic solubility of 10 µg/mL (≈ 24.6 µM).

`Cc1ccc2[nH]c(C)c(CCNCc3cccnc3)c2c1.Cl`: the kinetic solubility was found to be 47.1 µg/mL. Compared with the last molecule, the solubility kinetic is about 4.7-fold higher.

Molecule `COc1ccc(NC(=O)CSc2nc3nc(C)cc(C)c3c(=O)[nH]2)cc1OC` yielded a solubility (kinetic) of 6.5 µg/mL (≈ 16.2 µM).

On to `COc1ccc(OC(C)C(=O)NC2CCCCCC2)cc1` (stereo not drawn), for which the kinetic solubility amounted to 40 µg/mL (≈ 137 µM).

Consider `CSC1=NC2(C)CCCCC2C12C=CC(=O)C=C2` (stereo not drawn), for which the kinetic solubility was over 39.2 µg/mL.

In turn, `CC(=O)Nc1ccc(NC(=O)[C@H](C)NC(=O)c2ccco2)cc1` came in with a solubility (kinetic) of over 47.3 µg/mL.

In the case of `C/C(=N\O)c1cc(Cl)ccc1O`, the kinetic solubility is over 27.8 µg/mL.

The molecule `CCn1c(Oc2ccc(F)cc2)nc2c1c(=O)n(C)c(=O)n2C` registered a solubility (kinetic) of over 47.7 µg/mL.

In the case of `N#CCCN(Cc1ccccc1)C(=O)c1nccnc1C(=O)O`, the kinetic solubility is over 46.5 µg/mL.

Molecule `O=C(c1ccc([N+](=O)[O-])s1)N1CCc2ccccc21` registered a kinetic solubility of under 0.3 µg/mL.

Consider `Cc1ccc(N2CCN(CC(O)COc3ccccc3)CC2)cc1` (stereo not drawn), for which the kinetic solubility came to 30.1 µg/mL (≈ 92.2 µM).

`CC(=O)c1ccccc1NC(=O)COC(=O)c1cc[n+]([O-])cc1` showed a kinetic solubility of over 47.1 µg/mL.

Molecule `CC(OC(=O)c1cc(S(=O)(=O)N2CCOCC2)ccc1F)C(=O)NCC1CCCCC1` (stereo not drawn) yielded a kinetic solubility of over 68.5 µg/mL.

As for `COc1ccc(NC(=O)CCN2C(=O)[C@@H]3[C@H](C2=O)[C@H]2C=C[C@@H]3C2)cc1`, the solubility (kinetic) is 46.7 µg/mL (≈ 137 µM).

Regarding `Cc1nc2ccc(C(=O)N3CCN(Cc4ccccc4)CC3)cc2[nH]1`, the solubility (kinetic) is 49.7 µg/mL (≈ 149 µM). This solubility kinetic and that of the molecule before are within 1.5-fold of each other.

`C=CC(C)C(C(=O)c1ccccc1)N(C)C` (stereo not drawn) had a kinetic solubility of 12 µg/mL (≈ 55.2 µM). This solubility kinetic is about 4.1-fold lower than that of the molecule before.

Regarding `CNc1snc(C)c1C(=O)OC(C)C(=O)Nc1cccc(C)c1` (stereo not drawn), the solubility (kinetic) was determined as 4.8 µg/mL (≈ 14.4 µM).

Consider `CSc1cccc(NC(=O)CNC(=O)C2CCCCC2)c1`, for which the kinetic solubility came out at 22.7 µg/mL (≈ 74.1 µM).

For the molecule `COc1ccc(Cl)cc1C(=O)N1CCN(Cc2ccc3c(c2)OCO3)CC1`, the solubility (kinetic) was determined as 47.4 µg/mL (≈ 122 µM).

Turning to `COc1ccc(NC(=O)CSc2nnc(-c3cccnc3)n2C)cc1`, the kinetic solubility was over 53.3 µg/mL.

`Cc1ccc(C)c(NC(=O)CSc2nc(C)cs2)c1`: the kinetic solubility turned out to be 39.9 µg/mL (≈ 136 µM).

Turning to `CC(CCc1ccc(O)cc1)NCc1ccc(Cl)cc1Cl` (stereo not drawn), the kinetic solubility is over 48.6 µg/mL.

In turn, `O=C(CSc1ccc2c(c1)OCCO2)NCc1ccccc1` returned a solubility (kinetic) of 44 µg/mL (≈ 140 µM).

In turn, `S=C(NCC1(c2ccccc2)CCCC1)Nc1ccccc1` registered a solubility (kinetic) of 0.8 µg/mL (≈ 2.58 µM).

`CCN(CC)CCCNc1nc(N)c([N+](=O)[O-])c(NCCO)n1` had a solubility (kinetic) of over 49.1 µg/mL.

The molecule `NC(=S)Nc1nc2ccccc2s1` showed a solubility (kinetic) of 25.8 µg/mL (≈ 123 µM).

Molecule `CC(=O)N1N=C(c2ccccc2)OC1c1cccnc1` (stereo not drawn) showed a kinetic solubility of over 40.1 µg/mL.

The molecule `O=C(NCCc1ccccc1)c1cccc(N2C(=O)C3CC=CCC3C2=O)c1` (stereo not drawn) gave a kinetic solubility of 47.2 µg/mL (≈ 126 µM).

Take `Cc1noc(C)c1CNCc1ccccc1.O=C(O)C(=O)O`: the kinetic solubility is over 45.9 µg/mL.

Molecule `Cc1ccc(CNC2CCCCC2)s1.Cl` displayed a solubility (kinetic) of over 36.9 µg/mL.

Consider `Cc1ccc(N(CCC#N)C(=O)COC(=O)c2ccccn2)cc1`, for which the kinetic solubility was over 48.5 µg/mL.

`CCn1c(=O)c2sccc2n(Cc2ccccc2)c1=O` displayed a kinetic solubility of 8.9 µg/mL (≈ 31.1 µM).
